Values after ≈ are worked out from the molar mass of the structure shown. Values joined by “and” are separate entries in the source; they are usually repeats but may differ in a detail not shown here. Identical values can stand only once.
Tests used:
Anas platyrhynchos [1] = conditions: oral, mortality; for LD50: acute, unspecified; for LC50: short-term, feed
Apis mellifera = conditions: acute; dermal; mortality
Bibionidae = conditions: chronic/long-term; duration: 28 days
Ceriodaphnia dubia = conditions: chronic/long-term; duration: 7 days; reproduction
Colinus virginianus = conditions: acute, oral, mortality; for LC50: diet
Coturnix coturnix = conditions: acute, oral, mortality
Folsomia candida = conditions: chronic/long-term; duration: 28 days
Hypoaspis aculeifer = conditions: chronic/long-term; duration: 28 days
Lepomis macrochirus = conditions: acute; duration: 96 hours; mortality
Phasianus sp. = conditions: acute, oral, unspecified, mortality
Rattus norvegicus = conditions: mortality
Anas platyrhynchos [2] = test: LC10; higher = less toxic; conditions: short-term; duration: 14 days; oral; feed; mortality

## CNC(=O)Oc1cccc2c1OC(C)(C)C2 [Carbofuran]
Anas platyrhynchos [1]; F
  LD50: 0.86 mg/kg-day
Anas platyrhynchos [1]
  LD50: 0.76 mg/kg-day
Anas platyrhynchos [1]; duration: 5 days
  LC50: 10 mg/kg-day and 17 mg/kg-day
Anas platyrhynchos [1]; duration: 14 days
  LC50: 1.6 mg/kg-day
Apis mellifera
  LD50: 0.0357 µg/piece
Bibionidae
  NOEC: 0.0032 mg/L
Ceriodaphnia dubia
  NOEC: 0.00016 mg/L
Colinus virginianus; duration: 5 days
  LC50: 114 mg/kg-day
Colinus virginianus; duration: 7 days
  LC50: 20.8 mg/kg-day
Colinus virginianus; duration: 14 days
  LC50: 15.8 mg/kg-day
Colinus virginianus; M/F
  LD50: 8 mg/kg-day
Coturnix coturnix; F
  LD50: 3.5 mg/kg-day
Coturnix coturnix; M
  LD50: 4.9 mg/kg-day
Folsomia candida
  NOEC: 0.21 mg/kg
Hypoaspis aculeifer
  NOEC: 10.4 mg/kg
Lepomis macrochirus
  LC50: 0.18 µg/mL (≈ 0.814 µM)
Phasianus sp.; F
  LD50: 6.2 mg/kg-day
Phasianus sp.; M
  LD50: 4 mg/kg-day
Rattus norvegicus; acute, oral
  LD50: < 5.6 mg/kg-day
Rattus norvegicus; chronic
  NOAEL: 0.1 mg/kg-day
Tagia sp.; acute, duration: 14 days, mortality
  LC50: > 50 mg/kg
Tagia sp.; chronic/long-term, duration: 56 days
  NOEC: < 0.84 mg/kg
Anas platyrhynchos [2]
  LC10: 0.64 mg/kg-day

From EPA's ToxValDB 9.5 (doi:10.2903/j.efsa.2009.310r)
